{"source": "patent US20020132276A1", "about": "“FACS method for detecton of GPIIb/IIIa inhibitor dependent activators in plasma samples” (priority 1999, published 2002)", "key": {"platelet CD62 [1]": {"test_system": "platelet CD62", "experiment": "DDPASFCA: flow cytometric detection of platelet CD62 in plasma samples with and without GPIIb/IIIa antagonist (Example 1 procedure)", "assay_type": "cell-based, human", "set-up": "key to Delta Med F12: median PE fluorescence with antagonist minus without antagonist", "experimental": "50 μL of citrated plasma from a patient eliciting a thrombocytopenic response during treatment with Compound A was added to Costar Serocluster® 96 well V-bottom microtiter plates (#3897). GPIIb/IIIa antagonist or vehicle was added (2 μL of 5μM compound A, final concentration 200 nM) was added, followed by sufficient PRP or PRP diluted into PPP to give a final platelet number of 1×10^6/well (typically 2 μL PRP). Reactions were incubated without shaking for 120 minutes. After this time, 15 μL of phycoerythrin conjugated anti-CD62 (anti-CD62-PE, Bectin Dickinson) was added. After 30 minutes the samples were diluted with 130 μL flow buffer (FB) consisting of 10 mM HEPES, 5 mM Kcl, 168 mM NaCl, 1 mM MgCl2. Samples were then transferred to 12×75 mm polystyrene and analyzed on a FACScan (Bectin Dickinson). PE fluorescence was read on FL2. Platelets were identified by their characteristic forward and side light scatter. Data from 10,000 events was obtained per sample and analyzed using Bectin Dickinson CellQuest software. The effects of GPIIb/IIIa antagonists on CD62 expression are expressed as the difference in median PE fluorescence for reactions in the presence of GPIIb/IIIa antagonist and CD62 median PE fluorescence in the absence of a GPIIb/IIIa antagonist.\nThe procedure was the same as in Example 1 (with modifications outlined in that example) except that where samples were limiting, only 35-40 μL of plasma was used.\nPlasma from a patient who developed a thrombocytopenic episode while under therapy with Compound A was analyzed for the presence of DDPASs that might not be of immunoglobulin nature. Plasma from this previously thrombocytopenic patient (taken 17 months after the thrombocytopenia) as well as normal human plasma (negative control) and plasma from a subject known to contain DDPAS (positive control) were processed to remove immunoglobulins by passage through 1 mL protein A Hitrap® columns (Pharmacia, Inc.). The immunoglobulin-depleted plasma was free of IgG as assessed by an IgGl-specific ELISA and negative for the presence of GPIIb/IIIa antagonist-dependent anti-platelet antibodies as assessed by the DDAB ELISA assay. Plasma samples were then tested in the DDPASFCA as described in Example 1. There was no statistical difference between results for plasma samples containing immunoglobulin and those not containing immunoglobulin, Table 1.\nThe detection of a positive DDPAS titer in the presence of a donor plasma was assessed with dilutions of the DDPASFCA-positive plasma DPC38 into the DDPASFCA-negative plasma DPC50 using platelets from DPC50 as follows: Varying volume amounts of control plasma (DPC50), not containing DDPASs, were mixed with a the DDPAS-positive test plasma (total volume 50 μL). 1×10^6 platelets (PRP) was added. Samples were treated as in Example 1 with and without added Compound A. In the concentration range employed, DDPASs could be quantitatively measured in the test plasma. […] Thus, the signal intensity in the DDPASFCA was dose-dependent with respect to the plasma concentration for the DDPASFCA-positive subject DPC38. In contrast DDPASs were undetectable in the control plasma.\nThe development of DDPASs in the plasma of a patient who received Compound A and developed thrombocytopenia was analyzed using the procedure of Example 1. DDPASFCA was not determined for patient #304 prior to taking Compound A. The patient experienced thrombocytopenia after 3 days of administration of Compound A. DDPASs were subsequently detected in this patient's plasma on day 22 post-administration of Compound A and were also detected 17 months later (FIG. 2). DPC38 was used as a positive control. DPC3 was used as a negative control. […] In a prospective study, a patient with such pre-existing DDPASs could be excluded from the study, possibly preventing the clinically significant thrombocytopenic episode."}, "platelet CD62 [2]": {"test_system": "platelet CD62", "experiment": "Depletion of DDPAS from plasma by platelets with Compound A, and EDTA elution, read in the DDPASFCA", "assay_type": "cell-based, human", "experimental": "Thrombocytopenic patient plasma was processed as described in Example 1 and Delta fluorescence is shown (FIG. 3, panel A) as a function of volume percent patient plasma. After treatment of 099016 plasma with platelets in the presence and in the absence of compound A, samples were evaluated in the DDPASFCA at a 1/3 dilution using fresh donor PRP.\nThrombocytopenic patient 099016 plasma was evaluated in the DDPASFCA as in Example 1, with the modification that 10 μL of sample, or a sample of 099016 plasma diluted into DDPASFCA-negative plasma, was combined with 20 μL donor PRP (final platelet concentration=1×10^8/mL). The signal in the DDPASFCA was proportional to the patient plasma dilution. Next, the ability of platelets, a physiologically relevant source of GPIIb/IIIa, to remove certain kinds of DDPASs was tested. DDPAS positive thrombocytopenic plasma 099016 (70 μl) was treated with fresh donor PRP (140 μL, final platelet concentration 3×10^8/mL) for 60 minutes in the presence or the absence of compound A (1 μM). Platelets were removed by centrifugation at 1000×G for 5 minutes, and the resulting plasma samples were tested in the DDPASFCA as in Example 1, with the modification that 3 μL of sample was combined with 27 μL donor PRP (final platelet concentration=1×10^8/mL) in the presence or the absence of Compound A (1 μM). […] The samples were then evaluated in the DDPASFCA."}, "[3]": {"details": "Neg. control plasma, IgG status +"}, "[4]": {"details": "Neg. control plasma, IgG status − (protein A-depleted)"}, "[5]": {"details": "Pos. control plasma, IgG status +"}, "[6]": {"details": "Pos. control plasma, IgG status − (protein A-depleted)"}, "[7]": {"details": "TCP plasma, IgG status − (protein A-depleted plasma)"}}, "note": "“Also recorded” adds a separate entry of the source.", "data": [{"smiles": "CCCCOC(=O)N[C@@H](CNC(=O)C[C@H]1CC(c2ccc(C(=N)N)cc2)=NO1)C(=O)O", "note": "[Compound A, 2(S)-[(n-butoxycarbonyl)amino]-3-[[[3-[4-(aminoiminomethyl)phenyl]isoxazolin-5(R)-yl]methylcarbonyl]amino]propionic acid]", "values": [{"measurement": "+ compound Med F12", "setting": "platelet CD62 [1]; DPC38 0 ul, DPC50 50 ul", "value": 12}, {"measurement": "Delta Med F12", "setting": "platelet CD62 [1]; DPC38 0 ul, DPC50 50 ul", "value": "−8"}, {"measurement": "+ compound Med F12", "setting": "platelet CD62 [1]; DPC38 8 ul, DPC50 42 ul", "value": 64}, {"measurement": "Delta Med F12", "setting": "platelet CD62 [1]; DPC38 8 ul, DPC50 42 ul", "value": 20}, {"measurement": "+ compound Med F12", "setting": "platelet CD62 [1]; DPC38 10 ul, DPC50 40 ul", "value": 73}, {"measurement": "Delta Med F12", "setting": "platelet CD62 [1]; DPC38 10 ul, DPC50 40 ul", "value": 17}, {"measurement": "+ compound Med F12", "setting": "platelet CD62 [1]; DPC38 12 ul, DPC50 38 ul", "value": 88}, {"measurement": "Delta Med F12", "setting": "platelet CD62 [1]; DPC38 12 ul, DPC50 38 ul", "value": 17}, {"measurement": "+ compound Med F12", "setting": "platelet CD62 [1]; DPC38 17 ul, DPC50 33 ul", "value": 135}, {"measurement": "Delta Med F12", "setting": "platelet CD62 [1]; DPC38 17 ul, DPC50 33 ul", "value": 21}, {"measurement": "+ compound Med F12", "setting": "platelet CD62 [1]; DPC38 25 ul, DPC50 25 ul", "value": 271}, {"measurement": "Delta Med F12", "setting": "platelet CD62 [1]; DPC38 25 ul, DPC50 25 ul", "value": 79}, {"measurement": "Delta Med F12", "setting": "platelet CD62 [1]; DPC38 50 ul, DPC50 0 ul", "value": 304}, {"measurement": "+ compound Med F12", "setting": "platelet CD62 [1]; DPC38 50 ul, DPC50 0 ul, DPC50 platelets", "value": 670}, {"measurement": "Delta (median PE fluorescence with minus without compound A)", "setting": "platelet CD62 [1]; [3]", "value": "−2 +/− 2"}, {"measurement": "FL2 compound A (median PE fluorescence)", "setting": "platelet CD62 [1]; [3]", "value": "16 +/− 1"}, {"measurement": "Delta (median PE fluorescence with minus without compound A)", "setting": "platelet CD62 [1]; [4]", "value": "−44 +/− 15"}, {"measurement": "FL2 compound A (median PE fluorescence)", "setting": "platelet CD62 [1]; [4]", "value": "30 +/− 9"}, {"measurement": "Delta (median PE fluorescence with minus without compound A)", "setting": "platelet CD62 [1]; [5]", "value": "142 +/− 73"}, {"measurement": "FL2 compound A (median PE fluorescence)", "setting": "platelet CD62 [1]; [5]", "value": "315 +/− 27"}, {"measurement": "Delta (median PE fluorescence with minus without compound A)", "setting": "platelet CD62 [1]; [6]", "value": "122 +/− 52"}, {"measurement": "FL2 compound A (median PE fluorescence)", "setting": "platelet CD62 [1]; [6]", "value": "297 +/− 33"}, {"measurement": "Delta (median PE fluorescence with minus without compound A)", "setting": "platelet CD62 [1]; TCP plasma, IgG status + (plasma)", "value": "78 +/− 10"}, {"measurement": "FL2 compound A (median PE fluorescence)", "setting": "platelet CD62 [1]; TCP plasma, IgG status + (plasma), Compound A 200 nM", "value": "154 +/− 8"}, {"measurement": "Delta (median PE fluorescence with minus without compound A)", "setting": "platelet CD62 [1]; [7]", "value": "94 +/− 25"}, {"measurement": "FL2 compound A (median PE fluorescence)", "setting": "platelet CD62 [1]; [7]", "value": "156 +/− 20"}, {"measurement": "DDPASs in patient plasma", "setting": "platelet CD62 [1]; patient #304, 17 months later", "value": "also detected"}, {"measurement": "DDPASs in patient plasma", "setting": "platelet CD62 [1]; patient #304, day 22 post-administration of Compound A", "value": "detected; also recorded: DDPASFCA positive"}, {"measurement": "DDPASs in plasmas of DDAB ELISA positive patients", "setting": "platelet CD62 [1]; pre-dose and study exit plasma, patients without clinically significant thrombocytopenia, except sample 099016", "value": "no substantial DDPASs"}, {"measurement": "residual DDPAS in plasma after treatment with platelets", "setting": "platelet CD62 [2]; patient 099016 plasma, donor PRP 60 minutes, Compound A 1 μM", "value": "depleted of the DDPAS; also recorded: specifically depleted the DDPAS"}, {"measurement": "DDPAS in EDTA eluate of platelets", "setting": "platelet CD62 [2]; platelets treated with 099016 plasma with Compound A, 9 mM EDTA, 37° C., 2 hours, versus DPC43 and DPC44", "value": "substantially positive; also recorded: elevated DDPAS"}]}]}
